Assay results reported in the supplement of paper PMC10307832.

Experiments:
Assay in all cases: relative viability (nuclei count vs DMSO), 5 days (fraction); higher = more cells survive
RO-3306 + Dasatinib = compound: C1=CC2=C(C=CC(=C2)C=C3C(=O)NC(=NCC4=CC=CS4)S3)N=C1 [RO-3306] + Cc1nc(Nc2ncc(C(=O)Nc3c(C)cccc3Cl)s2)cc(N2CCN(CCO)CC2)n1 [Dasatinib] (partner 0.075 µM)
Procedure, shortened: (§1)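 Cells from lung cancer lines were seeded into 1536-well plates and, one day later, dosed by pin tool. Treatments were either a single drug or a fixed dose of an anchor drug with five library-drug doses (not always all listed) in √10 steps. After 5 days, nuclei were stained in a one-step fixation (final 0.05% Triton X-100, 1% formaldehyde, 1 ug/ml Hoechst) and counted on 4× images, and relative viability is the treated-to-vehicle nuclei ratio, as the median of duplicate plates.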

RO-3306 + OSI-027 = compound: C1=CC2=C(C=CC(=C2)C=C3C(=O)NC(=NCC4=CC=CS4)S3)N=C1 [RO-3306] + COc1cccc2cc(-c3nc([C@H]4CC[C@H](C(=O)O)CC4)n4ncnc(N)c34)[nH]c12 [OSI-027] (partner 0.5 µM)
Procedure, shortened: as §1

[1] = compound: O=S(=O)(c1ccccc1)N(CC(F)(F)F)c1ccc(C(O)(C(F)(F)F)C(F)(F)F)cc1 + Cc1nc(NC(=O)N2CCC[C@H]2C(N)=O)sc1-c1ccnc(C(C)(C)C(F)(F)F)c1 [Alpelisib] (partner 2 µM)
Procedure, shortened: as §1

RO-3306 + Foretinib = compound: C1=CC2=C(C=CC(=C2)C=C3C(=O)NC(=NCC4=CC=CS4)S3)N=C1 [RO-3306] + COc1cc2c(Oc3ccc(NC(=O)C4(C(=O)Nc5ccc(F)cc5)CC4)cc3F)ccnc2cc1OCCCN1CCOCC1 [Foretinib] (partner 0.25 µM)
Procedure, shortened: as §1

Cell Line	relative viability (RO-3306 + Dasatinib; first compound 0.01 µM)	relative viability (RO-3306 + Dasatinib; first compound 0.03162 µM)	relative viability (RO-3306 + Dasatinib; first compound 0.1 µM)	relative viability (RO-3306 + Dasatinib; first compound 0.3162 µM)	relative viability (RO-3306 + Dasatinib; first compound 1 µM)	relative viability (RO-3306 + OSI-027; first compound 0.01 µM)	relative viability (RO-3306 + OSI-027; first compound 0.03162 µM)	relative viability (RO-3306 + OSI-027; first compound 0.1 µM)	relative viability (RO-3306 + OSI-027; first compound 0.3162 µM)	relative viability (RO-3306 + OSI-027; first compound 1 µM)	relative viability ([1]; first compound 0.8 µM)	relative viability ([1]; first compound 2.53 µM)	relative viability ([1]; first compound 8 µM)	relative viability (RO-3306 + Foretinib; first compound 0.01 µM)	relative viability (RO-3306 + Foretinib; first compound 0.03162 µM)	relative viability (RO-3306 + Foretinib; first compound 0.1 µM)	relative viability (RO-3306 + Foretinib; first compound 0.3162 µM)	relative viability (RO-3306 + Foretinib; first compound 1 µM)
NCI-H1755	0.46	0.417	0.441	0.366	0.411	0.777	0.736	0.652	0.702	0.635	0.981	0.91	0.83	0.939	0.973	0.921	0.927	0.936
NCI-H1793	0.341	0.345	0.324	0.451	0.353	0.266	0.277	0.291	0.251	0.262	0.585	0.491	0.578	0.654	0.265	0.627	0.748	0.735
NCI-H1915	0.341	0.312	0.288	0.329	0.253	0.698	0.594	0.613	0.637	0.396	1.09	1.03	1.02	1.14	0.891	1.15	1.11	1.23
NCI-H1944	0.209	0.212	0.206	0.223	0.217	0.399	0.366	0.361	0.394	0.335	0.802	0.837	0.738	0.966	0.884	0.818	0.92	0.915
NCI-H1975	0.345	0.324	0.344	0.35	0.344	0.959	0.614	0.655	0.788	0.613	0.616	0.581	0.594	0.975	1	1.02	0.985	0.793
NCI-H1993	0.754	0.49	0.695	0.586	0.523	0.6	0.581	0.507	0.614	0.543	0.707	0.674	0.77	0.924	0.794	0.789	0.727	0.809
NCI-H2009	0.279	0.267	0.265	0.293	0.277	0.656	0.56	0.624	0.622	0.615	1.09	1.02	0.964	1.32	1.24	1.2	1.19	1.2
NCI-H2023	0.742	0.47	0.496	0.598	0.518	0.429	0.373	0.36	0.419	0.283	0.574	0.606	0.506	1.17	0.71	0.818	0.702	0.943
NCI-H2085	0.212	0.221	0.225	0.265	0.237	0.598	0.728	0.642	0.664	0.635	0.982	0.885	0.969	0.866	0.766	0.78	1.11	0.94
NCI-H2087	1.01	0.541	0.914	0.869	1.04	0.534	0.462	0.529	0.539	0.538	1.16	1.11	0.972	0.985	1.01	1.13	1.24	0.982
NCI-H2126	0.663	0.622	0.58	0.523	0.542	0.627	0.597	0.707	0.708	0.727	0.878	0.768	0.773	1.58	0.914	1.26	1.19	1.01
NCI-H2170	0.492	0.585	0.57	0.621	0.456	0.819	0.702	0.726	0.655	0.697	0.961	0.804	0.798	0.929	0.925	0.98	1.11	0.985
NCI-H2228	0.569	0.435	0.47	0.562	0.453	0.652	0.411	0.557	0.685	0.429	0.88	0.491	0.502	0.759	0.808	0.954	0.641	0.635
NCI-H2347	0.296	0.285	0.285	0.284	0.283	0.449	0.404	0.421	0.249	0.356	1.25	1.2	1.04	0.982	0.503	0.868	0.702	0.741
NCI-H2405	0.199	0.493	0.173	0.225	0.463	0.609	0.591	0.629	0.614	0.626	0.877	0.795	0.868	1.05	1.06	1.03	1.03	0.961
NCI-H3122	0.823	0.751	0.835	0.787	0.857	1.11	0.849	1.03	1.03	1.01	0.744	0.627	0.672	0.987	0.984	0.94	0.969	1.09
PC-3 [JPC-3]	1.02	0.799	0.953	0.991	0.819	0.851	0.718	0.787	0.681	0.741	1.18	0.995	1.02	1.01	1	1.01	1.07	1.03
PC-14	0.239	0.359	0.232	0.243	0.212	0.895	0.609	0.76	1.37	0.86	0.829	0.697	0.525	0.968	0.739	0.935	1.04	0.917
RERF-LC-KJ	0.919	0.667	0.907	0.881	0.915	0.632	0.53	0.556	0.598	0.556	0.857	0.701	0.858	0.844	0.683	0.795	0.906	0.958
SK-LU-1	0.14	0.177	0.18	0.198	0.151	0.283	0.285	0.325	0.314	0.339	1.16	1.23	0.903	0.853	0.783	0.831	0.778	0.712
SK-MES-1	0.341	0.44	0.344	0.379	0.348	0.657	0.558	0.693	0.794	0.612	0.827	0.789	0.848	1.06	0.425	0.996	0.782	0.976
SW 1573	0.455		0.466	0.497	0.429	0.683		0.603	0.607	0.578	0.889	0.697	0.757	0.89	0.879	0.934	0.993	0.887
